This is an account of results in US6096788A, “Antimalaria and antibabesiosis agents and pharmaceutical compositions containing such agents” (priority 1996, dated 2000).

The subject of series [1] is Babesia bovis, Babesia canis. As to the kind of experiment: In vitro antibabesia activity, (3H) hypoxanthine incorporation. As to conditions: score from ED50 of (3H) hypoxanthine incorporation. Format: cell-based. The text has this: The screening process for antimalaria activity, based on parasite incorporation of (^3 H) hypoxanthine was used to test the antimetabolic activity of such components against Babesia bovis, Babesia canis. A tight relationship was found between the rate of (^3 H) hypoxanthine incorporation using standard measurements and the percentage of parasitized cells determined by microscopy. […] The score was ++ for the same activity at a concentration of 0.01 to 0.1 micromoles and finally + for a concentration under or equal to 1 micromole.

The nature of series [2]: Therapeutic index in infected mice (antimalaria activity compared with semi-chronic toxicity). Format: in vivo. The following applies: mouse, in vivo, i.p. or s.c., twice a day for four days, ratio of activity over toxicity (LD50). Here is the method:
In order to evaluate the therapeutic index of the different products, the activity of these products was tested in vivo and compared with […] toxicity in animals. This activity was measured using the test described by PETERS W. (Chemotherapy and Drug resistance in Malaria, 1970). A compound was administered for four consecutive days to mice previously infected with Plasmodium vinckei, petterei or chabaudi. The said compound was dissolved in a 0.9% NaCl solution. The preparations were thus administered intraperitoneally or subcutaneously in male Swiss mice infected by intravenous injection of Plasmodium petterei or Plasmodium chadaudi (10^6 infected cells). The compound was administered twice a day for four consecutive days, the first injection being performed two hours after the infestation and the second, 10 hours later. The parasitemia was determined on blood smears the day after the end of treatment. Toxicity was measured in vivo following the same schedule, the animals having received, under the same administration conditions as above, two injections per day for four days (semi-chronic toxicity). The results are expressed in lethal dose 50 (LD50), i.e. the dose causing death in 50% of the animals.
The results of these trials are summarized in Table I, below, and expressed as therapeutic index, or the ratio of activity over toxicity measured under the identical conditions described above.

As for `CCC[N+](C)(CC)CCCCCCCCCCCCCC[N+](C)(CC)CCC` (centres unmarked) [EXAMPLE 1, N,N'-dimethyl-N,N'-diethyl-N,N'-dipropyl-1,14 tetradecanediaminium, dibromide], the “Antibabesia activity at 10 millimoles” value in series [1] is “++ (the same activity at a concentration of 0.01 to 0.1 micromoles)”. Further, in series [2], the selectivity ratio came to 50.

For `CCC[N+](C)(CC)CCCCCCCCCCCCCCC[N+](C)(CC)CCC.[Br-].[Br-]` (centres unmarked) [EXAMPLE 2, N,N'-dimethyl-N,N'-diethyl-N,N'-dipropyl-1,15-pentadecanediaminium dibromide], the “Antibabesia activity at 10 millimoles” value in series [1] is “+ (a concentration under or equal to 1 micromole)”. Further, the selectivity ratio in series [2] was found to be 42.

`CCC[N+](C)(CC)CCCCCCCCCCCCCCCC[N+](C)(CC)CCC.[Br-].[Br-]` (centres unmarked) [EXAMPLE 3, N,N'-dimethyl-N,N'-diethyl-N,N'-dipropyl-1,16-hexadecanediaminium dibromide]: the selectivity ratio in series [2] was determined as 15.

With `CCC[N+](C)(CC)CCCCCCCCCCCCCCCCC[N+](C)(CC)CCC.[Br-].[Br-]` (centres unmarked) [EXAMPLE 4, N,N'-dimethyl-N,N'-diethyl-N,N'-dipropyl-1,17-heptadecanediaminium dibromide], the “Antibabesia activity at 10 millimoles” value in series [1] is reported as “++ (the same activity at a concentration of 0.01 to 0.1 micromoles)”. For the same compound, in series [2], the selectivity ratio turned out to be 17.

With `CCC[N+](C)(CC)CCCCCCCCCCCCCCCCCC[N+](C)(CC)CCC.[Br-].[Br-]` (centres unmarked) [EXAMPLE 5, N,N'-dimethyl-N,N'-diethyl-N,N'-dipropyl-1,18-octadecanediaminium dibromide], in series [1], the “Antibabesia activity at 10 millimoles” value is on record as “+++ (a 50% inhibition of (^3 H) hypoxanthine incorporation (ED50), these molecules having a concentration less than or equal to 0.01 micromoles)”. The selectivity ratio in series [2] came out at 12.

Take `CCC[N+](C)(CC)CCCCCCCCCCCCCCCCCCCC[N+](C)(CC)CCC.[Br-].[Br-]` (centres unmarked) [EXAMPLE 6, N,N'-dimethyl-N,N'-diethyl-N,N'-dipropyl-1,20-eicosanediaminium dibromide]: the “Antibabesia activity at 10 millimoles” value in series [1] is listed as “++ (the same activity at a concentration of 0.01 to 0.1 micromoles)”. Besides, the selectivity ratio in series [2] was found to be 15.

For the compound `CCC[N+](C)(CC)CCCCCCCCCCCCCCCCCCCCCC[N+](C)(CC)CCC` (centres unmarked) [EXAMPLE 7, N,N'-dimethyl-N,N'-diethyl-N N'-dipropyl-1,22-cosanediaminium dibromide], the “Antibabesia activity at 10 millimoles” value in series [1] was “++ (the same activity at a concentration of 0.01 to 0.1 micromoles)”. In series [2], the selectivity ratio stood at 35.

With `CCC[N+](CCC)(CCC)CCCCCCCCCCCCCC[N+](CCC)(CCC)CCC.[Br-].[Br-]` [EXAMPLE 8, N,N,N,N',N',N'-hexapropyl-1,14-tetradecanediaminium dibromide], in series [1], the “Antibabesia activity at 10 millimoles” value was “+ (a concentration under or equal to 1 micromole)”. Besides, in series [2], the selectivity ratio was 20.

Turning to `CCC[N+](CCC)(CCC)CCCCCCCCCCCCCCCCCCCC[N+](CCC)(CCC)CCC.[Br-].[Br-]` [EXAMPLE 10, N,N,N,N', N',N'-hexapropyl-1,20-eicosanediaminium dibromide], the “Antibabesia activity at 10 millimoles” value in series [1] is reported as “+ (a concentration under or equal to 1 micromole)”. The selectivity ratio in series [2] is 14.

On to `CCC[N+](CCC)(CCC)CCCCCCCCCCCCCCCCCCCCCCCC[N+](CCC)(CCC)CCC.[Br-].[Br-]` [EXAMPLE 11, N,N,N,N',N',N'-hexapropyl-1,24-tetracosanediaminium dibromide], for which the “Antibabesia activity at 10 millimoles” value in series [1] was “+ (a concentration under or equal to 1 micromole)”. Moreover, the selectivity ratio in series [2] stood at 28.

`CC[N+](C)(CC)CCCCCCCCCCCCCCCC[N+](C)(CC)CC` [EXAMPLE 13, N,N'-dimethyl-,N,N,N',N'-tetraethyl-1,16-hexadecanediaminium dibromide]: the “Antibabesia activity at 10 millimoles” value in series [1] is listed as “+++ (a 50% inhibition of (^3 H) hypoxanthine incorporation (ED50), these molecules having a concentration less than or equal to 0.01 micromoles)”. Further, the selectivity ratio in series [2] is 6.

Consider `CC[N+](C)(CC)CCCCCCCCCCCCCCCCCC[N+](C)(CC)CC` [EXAMPLE 14, N,N'-dimethyl-,N,N,N',N'-tetraethyl-1,18-octadecanediaminium dibromide], for which the “Antibabesia activity at 10 millimoles” value in series [1] is reported as “+++ (a 50% inhibition of (^3 H) hypoxanthine incorporation (ED50), these molecules having a concentration less than or equal to 0.01 micromoles)”. In series [2], the selectivity ratio came to 14.

With `CC[N+](C)(CC)CCCCCCCCCCCCCCCCCCCCC[N+](C)(CC)CC` [EXAMPLE 15, N,N'-dimethyl-,N,N,N',N'-tetraethyl-1,21-heneicosanediaminium dibromide], in series [1], the “Antibabesia activity at 10 millimoles” value is “+++ (a 50% inhibition of (^3 H) hypoxanthine incorporation (ED50), these molecules having a concentration less than or equal to 0.01 micromoles)”. Further, in series [2], the selectivity ratio came out at 12.

For `C[N+]1(CCCCCCCCCCCCCC[N+]2(C)CCCC2)CCCC1` [EXAMPLE 16, 1,1'-(1,14-tetradecanediyl)bis(1-methylpyrrolidium) dibromide], in series [1], the “Antibabesia activity at 10 millimoles” value is listed as “+++ (a 50% inhibition of (^3 H) hypoxanthine incorporation (ED50), these molecules having a concentration less than or equal to 0.01 micromoles)”. Further, in series [2], the selectivity ratio was found to be 8.

For the compound `C[N+]1(CCCCCCCCCCCCCCCC[N+]2(C)CCCC2)CCCC1` [EXAMPLE 17, 1,1'-(1,16-hexadecanediyl)bis(1-methylpyrrolidium) dibromide], the “Antibabesia activity at 10 millimoles” value in series [1] is “+++ (a 50% inhibition of (^3 H) hypoxanthine incorporation (ED50), these molecules having a concentration less than or equal to 0.01 micromoles)”. In series [2], the selectivity ratio was 7.

As for `C[N+]1(CCCCCCCCCCCCCCCCCCCCCC[N+]2(C)CCCC2CO)CCCC1CO` (centres unmarked) [EXAMPLE 19, 1,1'-(1,22-docosanediyl)bis(2-hydroxymethl-1-methylpyrrolidium) dibromide], in series [1], the “Antibabesia activity at 10 millimoles” value was “+ (a concentration under or equal to 1 micromole)”. Further, the selectivity ratio in series [2] was 40.

For `C[N+]1(CCCCCCCCCCCCCCCC[N+]2(C)CCOCC2)CCOCC1` [EXAMPLE 21, 1,1'-(1,16-hexadecanediyl)bis(1-methylmorphofinium) dibromide], in series [1], the “Antibabesia activity at 10 millimoles” value is on record as “+++ (a 50% inhibition of (^3 H) hypoxanthine incorporation (ED50), these molecules having a concentration less than or equal to 0.01 micromoles)”. Also, the selectivity ratio in series [2] came out at 25.

For `CCCCCCCCCCCC[N+](C)(C)CCCCCCCCCCCCCCCC[N+](C)(C)CCCCCCCCCCCC.[Br-].[Br-]` [EXAMPLE 22, N,N'-didodecyl-N,N,N',N'-tetramethyl-1,16-hexadecanediaminium dibromide], the “Antibabesia activity at 10 millimoles” value in series [1] is “++ (the same activity at a concentration of 0.01 to 0.1 micromoles)”. For the same compound, the selectivity ratio in series [2] worked out at 20.

In the case of `CCCCCCCCCCCC[N+](C)(C)CCCCCCCCCCCCCCCCCC[N+](C)(C)CCCCCCCCCCCC` [EXAMPLE 23], the “Antibabesia activity at 10 millimoles” value in series [1] is recorded as “+ (a concentration under or equal to 1 micromole)”. Moreover, in series [2], the selectivity ratio turned out to be 35.

Take `C#CC[N+](C)(C)CCCCCCCCCCCCCC[N+](C)(C)CC#C.[Br-].[Br-]` [EXAMPLE 24, N,N'-di(2-propynyl)-N,N,N',N'-tetramethyl-1,14-tetradecandiaminium dibromide]: the “Antibabesia activity at 10 millimoles” value in series [1] was “++ (the same activity at a concentration of 0.01 to 0.1 micromoles)”. In addition, the selectivity ratio in series [2] is 12.

In the case of `C=CC[N+](C)(C)CCCCCCCCCCCCCC[N+](C)(C)CC=C.[Br-].[Br-]` [EXAMPLE 25, N,N'-di(2-propenyl)-N,N,N',N'-tetramethyl-1,14-tetradecanediaminium dibromide], the “Antibabesia activity at 10 millimoles” value in series [1] was “+++ (a 50% inhibition of (^3 H) hypoxanthine incorporation (ED50), these molecules having a concentration less than or equal to 0.01 micromoles)”. For the same compound, in series [2], the selectivity ratio is 15.

Turning to `C#CCC[N+](C)(C)CCCCCCCCCCCCCC[N+](C)(C)CCC#C.[Br-].[Br-]` [EXAMPLE 26, N,N'-di(3-butynyl)-N,N,N',N'-tetramethyl-1,14-tetradecanediaminium dibromide], in series [1], the “Antibabesia activity at 10 millimoles” value was “++ (the same activity at a concentration of 0.01 to 0.1 micromoles)”. Also, the selectivity ratio in series [2] turned out to be 45.

`CCC[N+](CCC)(CCO)CCCCCCCCCCCCCC[N+](CCC)(CCC)CCO.[Br-].[Br-]` [EXAMPLE 27, N,N'-di(2-hydroxyethyl)-N,N,N',N'-tetrapropyl-1,14-tetradecanediaminium dibromide]: the “Antibabesia activity at 10 millimoles” value in series [1] is recorded as “++ (the same activity at a concentration of 0.01 to 0.1 micromoles)”. In series [2], the selectivity ratio was 15.

Consider `CCC[N+](CCC)(CCCCCCCCCCCCCC[N+](CCC)(CCC)CCOCC)CCOCC.[Br-].[Br-]` [EXAMPLE 28, N,N'-di(2-ethoxyethyl)-N,N,N',N'-tetrapropyl-1,14-tetradecanediaminium dibromide], for which the “Antibabesia activity at 10 millimoles” value in series [1] was “+++ (a 50% inhibition of (^3 H) hypoxanthine incorporation (ED50), these molecules having a concentration less than or equal to 0.01 micromoles)”. Moreover, in series [2], the selectivity ratio turned out to be 40.
